≈ marks a conversion by molar mass, not a printed value.
Columns and labels:
[1] = tested on: p53; assay: p53 ELISA in MCF-7 cells; type: cell-based, human; conditions: MCF-7 cells treated at IC50 concentration; control 4.18 ± 0.58; mean ± SD
Source text: (§1) The promising antiproliferative results reported for compounds 11a, 11b, 12a, 12b and 13c against cell lines under study have prompted us to investigate the mechanism of cell death induced by these compounds. Apoptosis induction was examined in both MCF-7 and HCT-116 cancer cells by assaying the level of its key protein markers, namely: proapoptotic (p53, Bcl 2-associated X, Bax and caspases3) and antiapoptotic (B-cell lymphoma-2, Bcl-2). MCF-7 and HCT-116 cells undergoing apoptosis was detected by use of the ELISA technique. Protein marker levels were quantified according to Bradford assay.
(§2) Briefly, cells ([…] and HCT) were seeded at a concentration of 1.2–1.8 × 10^3 cells/well in 6-well plates. After 48-h treatment, the collected cells were lysed and centrifuged at 10,000 rpm for 20 min at 4 °C. The protein concentration was measured in the supernatant by Bradford protein assay. Volume containing […] of total protein was incubated with […] of caspase substrate in […] of the reaction buffer at 37 °C for 1 h in the dark. Caspase-3 activity was determined by a microplate reader at 405 nm using a caspase-3 colorimetric assay kit (Abcam) according to the manufacturer’s instructions. In vitro protein level quantitative measurement of apoptotic marker p53, Bcl-2-associated X (Bax) and antiapoptotic marker B-cell lymphoma-2 (Bcl-2) in cell lysate were assessed by Enzyme-Linked Immunosorbent Assay Simple Step ELISA® (ab199080, ab119506 and ab171571; Abcam) according to the manufacturer’s instructions.

[2] = tested on: p53; assay: p53 ELISA in HCT-116 cells; type: cell-based, human; conditions: HCT-116 cells treated at IC50 concentration; control 1.68 ± 0.06; mean ± SD
Source text: as §1, §2

[3] = tested on: caspase-3; assay: Caspase-3 colorimetric assay in MCF-7 cells; type: cell-based, human; conditions: for Caspase-3 Activity %: MCF-7 cells treated at IC50 concentration, control 10.2 ± 2.84, mean ± SD; for Elevation of active caspase-3 protein levels compared to the control: MCF-7 cells, IC50 concentration
Source text: as §1, §2

[4] = tested on: MCF-7 (human breast cancer); assay: MTT cytotoxicity assay, MCF-7; type: cell-based; conditions: for inhibition at 100 µg/mL: MCF7, 100 µg/ml, 48 h, read-out: Growth Inhibition (%) MCF-7; for IC50: MCF7, 48 h post-treatment
Procedure: MCF-7 (human breast cancer), HCT-116 (human colon cancer) and HepG2 (human liver cancer) cell lines were obtained from Karolinska Institute, Stockholm, Sweden. All cells were maintained in RPMI 1640 medium. The media were supplemented with 10% heat-inactivated fetal bovine serum plus 1% antibiotic-antimycoticmixture (10,000 U/mL of potassium penicillin, 10,000 μg/mL of streptomycin sulfate, 25 μg/mL of amphotericin B and 1% of L glutamine (Biowest, USA)). BJ-1 of a human skin fibroblast derived from normal foreskin was obtained from ATCC® CRL-2522™ as a frozen ampoule with about 1 × 10^6 cells per 1 ml volume. BJ-1 was maintained in MEM with 2 mM of L-glutamine and Earle’s salts medium.
Cell viability was studied using the MTT 3-(4,5-dimethylthiazol-2-yl)-2,5-diphenyl-tetrazolium bromide (Bio Basic Canada Inc. Toronto, Canada) assay [33]. The steps were executed in a sterile laminar air flow cabinet biosafety class II level (Baker, SG403INT; Sanford, ME, USA). All incubations were carried out at 37 °C in a 5% CO2 incubator under a humidified atmosphere of 95% (Sheldon, TC2323; Cornelius, OR, USA). Cells were seeded into 96-well microtiter plastic plates at a concentration of (10^4 cells/well) and allowed to adhere for 24 h. The medium was aspirated and then added to the cells with the test compounds 11a–c, 12a–c, 13a–i, 14a–i and 15a,b at a single dose of 100 μg/mL in DMSO. After incubation of the medium for 48 h, 40 μL of MTT salt (2.5 μg/mL) was added to each well and then incubated for an additional 4 h. To stop the reaction and dissolve any formed formazan crystals, 200 μL of 10% sodium dodecyl sulfate (SDS) were added to each well and incubated overnight at 37 °C. The amount of formazan product was measured at 595 nm with a reference wavelength of 690 nm as a background using a microplate reader (Bio-Rad Laboratories, model 3350, California, USA). For the untreated cells (negative control), the medium was added instead of the tested compounds. […] Dimethylsulfoxide (DMSO) was the vehicle used for dissolution of the testing compound, and its final concentration on the cells was less than 0.2%. At the same dilution, the solvent concentration was the same for all drugs and between the control and drug treatments.

[5] = tested on: normal skin fibroblast cells (BJ-1); assay: MTT cytotoxicity assay, normal skin fibroblast BJ-1; type: cell-based; conditions: Homo sapiens, 48 h, read-out: Growth Inhibition (%) BJ-1
[6] = tested on: Bcl-2; assay: Bcl-2 ELISA in HCT-116 cells; type: cell-based, human; conditions: for Bcl-2 (ng/50 mg Protein): HCT-116 cells treated at IC50 concentration, control 23.56 ± 3.56, mean ± SD; for Reduction of expression level of antiapoptotic protein Bcl-2 compared to the control: HCT-116 cells, IC50 concentration
Source text: as §1, §2

[7] = tested on: B. subtilis (ATCC 6633); assay: Disk diffusion antimicrobial test, B. subtilis; type: cell-based, Bacillus subtilis; conditions: Bacillus subtilis, ATCC6633, Gram-positive, 20 mg per disc (title), concentration 20 µg (footnote)
Procedure: (§3) The newly synthesized compounds were chosen to be evaluated in vitro towards a variety of pathogenic microorganisms; Gram-positive bacteria: S. aureus (ATCC 6538) and B. subtilis (ATCC 6633); Gram-negative bacteria: P. areuginosa (ATCC 27853) and E. coli (DSMZ 1058); yeast: C. albicans (ATCC 10231) and S. cerevisiae (ATCC 9080) and fungi: A. niger (NRRL A-326) using the disk diffusion method at a single dose of 20 µl. The results are shown in Table 1 as the growth inhibition zone (mm).
(§4) The antimicrobial activity of target compounds were evaluated to be in vitro against a variety of pathogenic microorganisms, namely Staphylococcus aureus (ATCC 6538), Bacillus subtilis (ATCC 6633) (Gram-positive bacteria), Pseudomonas areuginosa (ATCC 27853), Escherichia coli (DSMZ 1058) (Gram-negative bacteria), Candida albicans (ATCC 10231), Saccharomyces cerevisiae (ATCC 9080) (Yeast) and Aspergillus niger (NRRL A-326) (Fungi) using the disk diffusion method at a single dose of 20 µg. The microorganisms were served and obtained from the Microbial Biotechnology Department, National Research Center, Giza, Egypt. Amphotericin, amoxicillin and ciprofloxacin were used as reference drugs (Oxoid™ Disks). The tested compounds 11a–c, 12a–c, 13a–i, 14a–i and 15a,b were dissolved in dimethylsulphoxide (DMSO) at a concentration of 1 mg/mL. Aliquots of 20 μl were soaked on filter paper discs (6 mm) and dried at room temperature under sterilized conditions. The paper discs were placed on inoculated agar plats and then incubated for 24 h at 37 °C for bacterial strains and after 48–72 h incubation at 30 °C for fungi. Both bacterial and yeast strains were grown on nutrient agar medium (g/l): beef extract, 3; peptone, 10 and agar, 20 at pH of 7.2. The fungal strain was grown on Czapek-Dox medium (g/l): sucrose, 30; NaNO3, 3; MgSO4.7H2O, 0.5l; KCl, 0.5; FeSO4, 0.01; K2HPO4, 1 and agar, 20 at pH of 6.0.

[8] = tested on: P. aeruginosa (ATCC 27853); assay: Disk diffusion antimicrobial test, P. aeruginosa; type: cell-based, Pseudomonas areuginosa; conditions: Pseudomonas aeruginosa, ATCC27853, Gram-negative, 20 mg per disc (title), concentration 20 µg (footnote)
Procedure: as §3, §4

[9] = tested on: S. aureus (ATCC 6538); assay: Disk diffusion antimicrobial test, S. aureus; type: cell-based, Staphylococcus aureus; conditions: Staphylococcus aureus, ATCC6538, Gram-positive, 20 mg per disc (title), concentration 20 µg (footnote)
Procedure: as §3, §4

[10] = tested on: A. niger (NRRL A-326); assay: Disk diffusion antimicrobial test, A. niger; type: cell-based; conditions: Aspergillus niger, fungi, 20 mg per disc (title), concentration 20 µg (footnote)
Procedure: as §3, §4

## COc1c(C2=NNC3(C2)C(=O)Nc2ccccc23)c(O)cc2occc12 (stereo not drawn) [Compound 11a, 5’-(6-Hydroxy-4-methoxy-benzofuran-5-yl)-2’,4’-dihydrospiro(indoline-3,3’-pyrazol)-2-one]
[1]
  p53 (Pg/50 mg Protein): 14.45 ± 0.82 Pg/50 mg Protein
[2]
  p53 (pg/50 mg Protein): 16.2 ± 0.56 pg/50 mg Protein
[3]
  Caspase-3 Activity %: 16.67 ± 0.67%
  Elevation of active caspase-3 protein levels compared to the control: ~ 1.6 folds
[4]
  inhibition at 100 µg/mL: 94.3%
  IC50: 21.1 µg/mL (≈ 60.4 µM)
[5]
  inhibition at 100 µg/mL: 6.2%
[6]
  Bcl-2 (ng/50 mg Protein): 8.2 ± 1.26 ng/50 mg Protein
  Reduction of expression level of antiapoptotic protein Bcl-2 compared to the control: ~ 66%
[7]
  zone of inhibition at 20 µg/disc: 12 mm
[8]
  zone of inhibition at 20 µg/disc: 8 mm

## COc1cc2occc2c(OC)c1C1=NNC2(C1)C(=O)Nc1ccccc12 (stereo not drawn) [Compound 11b, 5’-(4,6-Dimethoxy-benzofuran-5-yl)-2’,4’-dihydrospiro(indoline-3,3’-pyrazol)-2-one]
[1]
  p53 (Pg/50 mg Protein): 5.85 ± 0.75 Pg/50 mg Protein
[2]
  p53 (pg/50 mg Protein): 3.25 ± 0.15 pg/50 mg Protein
[3]
  Caspase-3 Activity %: 16.19 ± 0.79%
  Elevation of active caspase-3 protein levels compared to the control: ~ 1.6 folds
[4]
  inhibition at 100 µg/mL: 92.3%
  IC50: 19.4 µg/mL (≈ 53.4 µM)
[5]
  inhibition at 100 µg/mL: 10.1%
[6]
  Bcl-2 (ng/50 mg Protein): 7.25 ± 1.45 ng/50 mg Protein
  Reduction of expression level of antiapoptotic protein Bcl-2 compared to the control: ~76%
[7]
  zone of inhibition at 20 µg/disc: 12 mm
[8]
  zone of inhibition at 20 µg/disc: 12 mm

## COc1c(C2=NNC3(C2)C(=O)Nc2ccccc23)c(O)c(OC)c2occc12 (stereo not drawn) [Compound 12a, 5’-(6-Hydroxy-4,7-dimethoxy-benzofuran-5-yl)-2’,4’-dihydrospiro(indoline-3,3’-pyrazol)-2-one]
[1]
  p53 (Pg/50 mg Protein): 13.31 ± 1.08 Pg/50 mg Protein
[9]
  zone of inhibition at 20 µg/disc: 8 mm
[2]
  p53 (pg/50 mg Protein): 23.11 ± 1.22 pg/50 mg Protein
[3]
  Caspase-3 Activity %: 14.18 ± 0.74%
  Elevation of active caspase-3 protein levels compared to the control: ~1.4 folds
[4]
  inhibition at 100 µg/mL: 93.6%
  IC50: 20.2 µg/mL (≈ 53.2 µM)
[5]
  inhibition at 100 µg/mL: 9.1%
[6]
  Bcl-2 (ng/50 mg Protein): 21.13 ± 1.45 ng/50 mg Protein
[7]
  zone of inhibition at 20 µg/disc: 16 mm
[8]
  zone of inhibition at 20 µg/disc: 18 mm

## COc1c(C2=NNC3(C2)C(=O)Nc2ccccc23)c(OC)c2ccoc2c1OC (stereo not drawn) [Compound 12b, 5’-(4,6,7-Trimethoxy-benzofuran-5-yl)-2’,4’-dihydrospiro(indoline-3,3’-pyrazol)-2-one]
[1]
  p53 (Pg/50 mg Protein): 29.58 ± 2.53 Pg/50 mg Protein
[9]
  zone of inhibition at 20 µg/disc: 10 mm
[2]
  p53 (pg/50 mg Protein): 48.07 ± 1.94 pg/50 mg Protein
[3]
  Caspase-3 Activity %: 47.25 ± 1.89%
  Elevation of active caspase-3 protein levels compared to the control: ~4.6 folds
[4]
  inhibition at 100 µg/mL: 97.4%
  IC50: 16.7 µg/mL (≈ 42.5 µM)
[10]
  zone of inhibition at 20 µg/disc: 8 mm
[5]
  inhibition at 100 µg/mL: 5%
[6]
  Bcl-2 (ng/50 mg Protein): 18.87 ± 1.84 ng/50 mg Protein
[7]
  zone of inhibition at 20 µg/disc: 18 mm
[8]
  zone of inhibition at 20 µg/disc: 24 mm
